The values that follow are results of earlier work, collected in EP3731827B1, “ORAL PHARMACEUTICAL COMPOSITION COMPRISING POSACONAZOLE” (Sanovel Ilac Sanayi ve Ticaret A.S., priority 2017, dated 2019).

The structures appear in SMILES notation. Read-outs that look alike come from different tables or passages of the source.

On to `CC[C@@H]([C@H](C)O)n1ncn(-c2ccc(N3CCN(c4ccc(OC[C@@H]5CO[C@@](Cn6cncn6)(c6ccc(F)cc6F)C5)cc4)CC3)cc2)c1=O` [posaconazole, 4-[4-[4-[4-[[(3R,5R)-5-(2,4-difluorophenyl)-5-(1,2,4-triazol-1-ylmethyl)oxolan-3-yl]methoxy]phenyl]piperazin-1-yl]phenyl]-2-[(2S,3S)-2-hydroxypentan-3-yl]-1,2,4-triazol-3-one], for which the solubility entry reads like this: (at pH 6.4 or higher) “less than 1 µg/ml”; (in the stomach) “about 0.8 mg/ml”.
